# Assay results published in US20120171123A1, “USES AND COMPOSITIONS FOR TREATMENT OF RHEUMATOID ARTHRITIS” (priority 2006, published 2012).
# Columns and labels:
# [1] = test system: patients with RA who had failed prior treatment with infliximab; test: Adalimumab after failed infliximab: HAQ; assay type: in vivo, human
# Description: Patients eligible to participate in the study included those with long-standing, moderate to severe RA who had terminated infliximab therapy because of lack or loss of efficacy and/or intolerance/side effects. […] Follow-up visits for safety and efficacy monitoring were scheduled at 2, 8, and 16 weeks. […] Efficacy parameters included TJC28 and SJC28; DAS28; ACR20, ACR50 Response; Moderate EULAR response; and HAQ. Subgroup analysis by reason for discontinuation included: • in case of discontinuation due to lack or loss of efficacy, patients were counted in the corresponding group regardless of additional cause of intolerance. • The subgroup “Discontinuation due to intolerance” was exclusive.
# [2] = test system: patients with active rheumatoid arthritis; test: Study A: HAQ physical function; assay type: in vivo, human
# Description: Efficacy of a treatment for rheumatoid arthritis can be determined by using the health assessment questionnaire (HAQ). Health Assessment Questionaire (HAQ) is a standardized disability questionnaire that was initially developed for use in rheumatoid arthritis (RA). […] The HAQ is a validated questionnaire designed to assess patients' ability to perform activities of daily living, particularly in adult arthritics. The instrument consists of the HAQ Disability Index (20 items), Pain Scale (1 item), and Global Health Status (1 item) that measure disability/physical functioning and quality of life (see Fries (1982) et al. J Rheumatol 9:789).
# Improvements in physical function were determined using the HAQ score.
# To evaluate the impact of prior biological therapies, patients with moderate to severe RA enrolled at 450 sites in 11 European countries plus Australia (Study A). Patients with moderate to severe RA and an inadequate response to prior DMARD therapies were enrolled in a 12-week open-label study with an optional extension phase. […] Efficacy parameters included ACR20, ACR50, ACR70, EULAR Response, HAQ, tender and swollen joint count (TJC28/SJC28), and DAS28.
# Patients with long-standing, moderate to severe RA were enrolled in Study A at 450 sites in 12 different countries. The study design for Study A is outlined in FIG. 21. […] Previous treatment with other biologics was allowed up to 8 weeks before enrollment. Patients met the following inclusion criteria: Age ≧18 years; RA (defined by American College of Rheumatology criteria) for ≧3 months; active, moderate to severe RA (Disease Activity Score (DAS28)≧3.2); unsatisfactory response or intolerance to at least one prior DMARD, including biologics. Efficacy assessments were performed at weeks 0 (baseline), 2, 6, and 12. The key outcomes measured were: change in DAS28; EULAR responses; ACR20, ACR50, ACR70 responses; changes in Tender Joint Count (TJC) and Swollen Joint Count (SJC); and change in Health Assessment Questionnaire (HAQ).
# Moderately to severely active RA was defined by Disease Activity Score 28 (DAS28)≧3.2 at baseline. Unsatisfactory response or intolerance to at least one prior DMARD was required for enrollment in Study A. A 12-week study period was followed by an optional extension phase with efficacy and routine safety evaluations performed at Weeks 2, 6, 12, 20, and every 8 weeks thereafter. […] Key efficacy parameters include ACR20, 50, and 70 responses; EULAR responses; and changes in DAS28, Tender Joint Count (TJC), Swollen Joint Count (SJC), C-Reactive Protein (CRP), and Health Assessment Questionnaire Disability Index (HAQ). […] Adverse events (AE) were collected throughout the entire treatment period, also beyond Week 52.
# [3] = test system: MTX-naïve adult patients with active, early RA (<3 years); conditions: human, in vivo
# [4] = test system: patients with long-standing RA; test: Study 4: HAQ disability index; assay type: in vivo, human
# Description: Efficacy outcomes were evaluated as observed data: DAS28; ACR 20/50/70; Tender Joint Count (TJC); Swollen Joint Count (SJC); and HAQ Disability Index. Baseline demographics and disease characteristics were similar in both Study 4 and Study 5 consistent with moderate to severe RA, as shown below in Table 64: […]
# [5] = test system: patients with active rheumatoid arthritis; conditions: Study A (N=2008), 12 weeks; cited from earlier work
# [6] = test system: patients with moderate to severe rheumatoid arthritis; test: Study C: medically relevant adverse events; assay type: in vivo, human
# Description: The Canadian Adalimumab Clinical Trial (Study C) was an open-label, multi-center, Phase IIIb study conducted in Canada. […] Efficacy and safety were assessed at baseline, 4, 8, and 12 weeks. Efficacy assessments included tender joint count (TJC 0-28), swollen joint count (SJC 0-28), Disease Activity Score 28 (DAS28), Health Assessment Questionnaire (HAQ), and EULAR response. […] The sample size for each outcome variable is based on the data available at the time of the analysis. The data from this preliminary analysis were compared with the Week 12 data from Study A (N=2008).
# [7] = 12 weeks, all pts in Study A (n=4241)
# [8] = 12 weeks, prior biologic: Any (n=688)
# [9] = 12 weeks, prior biologic: ETA (n=114)
# [10] = 12 weeks, prior biologic: ETA + INF (n=78)
# [11] = 12 weeks, prior biologic: INF (n=358)
# [12] = 12 weeks, prior biologic: None (n=3553)
substance,measurement,setting,value
"adalimumab: human anti-TNF mAb (HUMIRA, Abbott Laboratories), described in U.S. Pat. No. 6,090,382 as D2E7",change in HAQ,"[1]; week 16, all (n=37)",−0.25
same,change in HAQ,"[1]; week 16, infliximab stopped for intolerance (n=5)",−0.15
same,change in HAQ,"[1]; week 16, infliximab stopped for loss of response (n=19)",−0.36
same,change in HAQ,"[1]; week 16, infliximab stopped for no response (n=13)",−0.23
same,improvement in HAQ score,"[2]; 12 weeks, N=2008 analysis",−0.49
same,patients achieving HAQ<0.5,"[2]; 12 weeks, N=2008 analysis",25%
same,"Change in HAQ, mean change from baseline",[2]; [7],−0.49
same,HAQ < 0.5,[2]; [7],24%
same,"Change in HAQ, mean change from baseline",[2]; [8],−0.43
same,HAQ < 0.5,[2]; [8],13%
same,"Change in HAQ, mean change from baseline",[2]; [9],−0.36
same,HAQ < 0.5,[2]; [9],9%
same,"Change in HAQ, mean change from baseline",[2]; [10],−0.35
same,HAQ < 0.5,[2]; [10],13%
same,"Change in HAQ, mean change from baseline",[2]; [11],−0.49
same,HAQ < 0.5,[2]; [11],14%
same,"Change in HAQ, mean change from baseline",[2]; [12],−0.5
same,HAQ < 0.5,[2]; [12],26%
same,"Change in HAQ, mean change from baseline","[2]; Week 12, concomitant LEF only (n=557)",−0.47
same,"Change in HAQ, mean change from baseline","[2]; Week 12, concomitant MTX + LEF (n=123)",−0.53
same,"Change in HAQ, mean change from baseline","[2]; Week 12, concomitant MTX + SSZ",−0.53
same,"Change in HAQ, mean change from baseline","[2]; Week 12, concomitant MTX only (n=1561)",−0.52
same,"Change in HAQ, mean change from baseline","[2]; Week 12, concomitant QC/HQC (n=85)",−0.63
same,"Change in HAQ, mean change from baseline","[2]; Week 12, concomitant SSZ only (n=89)",−0.47
same,"Change in HAQ, mean change from baseline","[2]; Wk 12, concomitant MTX Im 15 mg (N=76), no other DMARD",−0.55
same,"Change in HAQ, mean change from baseline","[2]; Wk 12, concomitant MTX Iv 15 mg (N=23), no other DMARD",−0.54
same,"Change in HAQ, mean change from baseline","[2]; Wk 12, concomitant MTX Sc 15 mg (N=37), no other DMARD",−0.53
same,"Change in HAQ, mean change from baseline","[2]; Wk 12, concomitant MTX oral 15 mg (N=405), no other DMARD",−0.50
same,"Change in HAQ, mean change from baseline","[2]; Wk 12, concomitant MTX oral ≦7.5 (N=127), no other DMARD",−0.56
same,"Change in HAQ, mean change from baseline","[2]; Wk 12, concomitant MTX oral ≧20 mg (N=216), no other DMARD",−0.52
same,mean change in HAQ score from baseline,[2]; week 2,−0.32
same,mean change in HAQ score from baseline,[2]; week 6,−0.44
same,mean change in HAQ score from baseline,[2]; week 12,−0.51
same,patients achieving HAQ<0.5,[2]; week 12,5%
same,patients with a change in HAQ≧−0.22 (MCID),[2]; week 12,70%
same,change in HAQ,[2]; week 12 (n=6235),−0.52
same,patients achieving HAQ<0.5,"[2]; week 12, listed as Adalimumab",25%
same,change in HAQ,[2]; week 28 (n=4119),−0.56
same,change in HAQ,[2]; week 52 (n=1251),−0.57
same,"withdrawn, reason AE",[3],11%
same,"HAQ, % change of mean clinical improvement from baseline",[4]; 6 months,45%
same,"HAQ, % change of mean clinical improvement from baseline",[4]; 12 months,43%
same,"HAQ, % change of mean clinical improvement from baseline",[4]; 24 months,47%
same,"HAQ, % change of mean clinical improvement from baseline",[4]; 36 months,47%
same,"HAQ, % change of mean clinical improvement from baseline",[4]; 48 months,50%
same,"EULAR response, % good",[5],34%
same,"EULAR response, % moderate",[5],82%
same,"Infections: Influenza, number",[6]; Study C (n=879),Influenza (1)
same,"Infections: Pneumonia, number",[6]; Study C (n=879),Pneumonia (3)
same,"Infections: Post-operative infections, number",[6]; Study C (n=879),infections (3)
same,"Infections: Pyelonephritis, number",[6]; Study C (n=879),Pyelonephritis (1)
same,"Infections: Sinusitis, number",[6]; Study C (n=879),Sinusitis (1)
same,"Medically relevant adverse events: Congestive heart failure, %",[6]; Study C (n=879),0.1%
same,"Medically relevant adverse events: Congestive heart failure, number",[6]; Study C (n=879),1
same,"Infections: Atypical infection (nodules), number",[6]; in vivo,(nodules) (1)
same,"Infections: Infected prosthesis, number",[6]; in vivo,Infected prosthesis (1)
same,"Medically relevant adverse events: Infections, %",[6]; in vivo,1.3%
same,"Medically relevant adverse events: Infections, number",[6]; in vivo,11
same,"Medically relevant adverse events: Malignancies, %",[6]; in vivo,0.2%
same,"Medically relevant adverse events: Malignancies, number",[6]; in vivo,2
